# Active and inactive are the calls of the source. Cut-off read from the data, not from the text of the source, for most assays here: actives have a measured IC50 and inactives only a lower limit.
# Key:
# [1] = molecular target: T1, Alkaline phosphatase, tissue-nonspecific isozyme (Homo sapiens, UniProt P05186); assay: TNAP enzyme inhibition by screening hits, dose response, selectivity assay for mouse IAP inhibitor project, biochemical, human TNAP, uHTS hits (AID 488906); format: functional
# T1 sequence (P05186 whole entry): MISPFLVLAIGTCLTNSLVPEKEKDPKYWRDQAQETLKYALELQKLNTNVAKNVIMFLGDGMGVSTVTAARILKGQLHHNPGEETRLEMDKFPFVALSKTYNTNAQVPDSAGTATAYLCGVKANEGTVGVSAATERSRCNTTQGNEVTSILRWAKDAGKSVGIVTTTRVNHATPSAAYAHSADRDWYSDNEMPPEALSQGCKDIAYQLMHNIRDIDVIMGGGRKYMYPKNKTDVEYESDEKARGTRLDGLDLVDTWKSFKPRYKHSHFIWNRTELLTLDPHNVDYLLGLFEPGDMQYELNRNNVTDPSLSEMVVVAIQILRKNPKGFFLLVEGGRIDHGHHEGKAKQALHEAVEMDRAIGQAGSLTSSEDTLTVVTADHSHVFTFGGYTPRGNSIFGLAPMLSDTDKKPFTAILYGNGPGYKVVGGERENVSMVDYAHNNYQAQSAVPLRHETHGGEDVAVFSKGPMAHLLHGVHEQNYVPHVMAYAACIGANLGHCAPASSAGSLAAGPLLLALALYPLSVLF
# [2] = molecular target: Intestinal-type alkaline phosphatase (Homo sapiens, UniProt P09923); assay: inhibition of human intestinal alkaline phosphatase – biochemical, dose response (AID 488876); format: functional
# Chain of Intestinal-type alkaline phosphatase (Homo sapiens, UniProt P09923) (P09923 whole entry): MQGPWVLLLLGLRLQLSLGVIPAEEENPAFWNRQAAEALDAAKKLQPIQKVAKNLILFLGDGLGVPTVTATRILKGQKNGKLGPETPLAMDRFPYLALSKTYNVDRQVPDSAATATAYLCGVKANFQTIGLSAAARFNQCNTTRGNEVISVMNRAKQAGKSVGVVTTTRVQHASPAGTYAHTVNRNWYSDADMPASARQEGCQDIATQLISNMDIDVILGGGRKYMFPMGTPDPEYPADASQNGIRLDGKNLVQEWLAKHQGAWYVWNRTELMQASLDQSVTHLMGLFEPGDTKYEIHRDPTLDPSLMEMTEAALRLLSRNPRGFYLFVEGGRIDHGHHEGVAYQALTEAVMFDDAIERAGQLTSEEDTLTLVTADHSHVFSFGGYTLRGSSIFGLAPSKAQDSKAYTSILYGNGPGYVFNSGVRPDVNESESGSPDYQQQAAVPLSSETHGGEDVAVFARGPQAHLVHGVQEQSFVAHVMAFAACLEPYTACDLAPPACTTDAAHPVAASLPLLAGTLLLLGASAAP
# [3] = molecular target: Intestinal-type alkaline phosphatase (Mus musculus, UniProt P24822); assay: PubChem AID 488785; format: functional
# Chain of Intestinal-type alkaline phosphatase (Mus musculus, UniProt P24822) (P24822 whole entry): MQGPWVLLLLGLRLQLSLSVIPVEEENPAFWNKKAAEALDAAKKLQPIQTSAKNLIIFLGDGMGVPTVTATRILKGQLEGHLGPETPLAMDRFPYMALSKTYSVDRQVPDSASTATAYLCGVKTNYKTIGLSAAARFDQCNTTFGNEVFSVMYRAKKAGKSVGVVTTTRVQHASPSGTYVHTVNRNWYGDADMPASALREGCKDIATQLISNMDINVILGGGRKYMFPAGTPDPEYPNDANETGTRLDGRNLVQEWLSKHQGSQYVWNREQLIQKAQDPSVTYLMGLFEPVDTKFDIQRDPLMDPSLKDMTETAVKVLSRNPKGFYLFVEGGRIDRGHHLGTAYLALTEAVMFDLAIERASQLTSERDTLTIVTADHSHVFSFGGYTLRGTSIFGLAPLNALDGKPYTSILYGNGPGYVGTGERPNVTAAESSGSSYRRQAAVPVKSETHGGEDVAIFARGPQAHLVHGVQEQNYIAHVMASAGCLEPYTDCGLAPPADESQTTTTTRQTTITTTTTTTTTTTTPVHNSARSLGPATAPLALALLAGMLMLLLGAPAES
# HEK293 = assay: cells; settings: Homo sapiens;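 note: cells exposed to compound for 14 hours overnight before viability readout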
# [4] = molecular target: T2, Nucleotide-binding oligomerization domain-containing protein 1 (Homo sapiens, UniProt Q9Y239); assay: NOD1 signaling inhibitors, SAR follow-up, revised (AID 2333); format: functional
# T2 sequence (Q9Y239 whole entry): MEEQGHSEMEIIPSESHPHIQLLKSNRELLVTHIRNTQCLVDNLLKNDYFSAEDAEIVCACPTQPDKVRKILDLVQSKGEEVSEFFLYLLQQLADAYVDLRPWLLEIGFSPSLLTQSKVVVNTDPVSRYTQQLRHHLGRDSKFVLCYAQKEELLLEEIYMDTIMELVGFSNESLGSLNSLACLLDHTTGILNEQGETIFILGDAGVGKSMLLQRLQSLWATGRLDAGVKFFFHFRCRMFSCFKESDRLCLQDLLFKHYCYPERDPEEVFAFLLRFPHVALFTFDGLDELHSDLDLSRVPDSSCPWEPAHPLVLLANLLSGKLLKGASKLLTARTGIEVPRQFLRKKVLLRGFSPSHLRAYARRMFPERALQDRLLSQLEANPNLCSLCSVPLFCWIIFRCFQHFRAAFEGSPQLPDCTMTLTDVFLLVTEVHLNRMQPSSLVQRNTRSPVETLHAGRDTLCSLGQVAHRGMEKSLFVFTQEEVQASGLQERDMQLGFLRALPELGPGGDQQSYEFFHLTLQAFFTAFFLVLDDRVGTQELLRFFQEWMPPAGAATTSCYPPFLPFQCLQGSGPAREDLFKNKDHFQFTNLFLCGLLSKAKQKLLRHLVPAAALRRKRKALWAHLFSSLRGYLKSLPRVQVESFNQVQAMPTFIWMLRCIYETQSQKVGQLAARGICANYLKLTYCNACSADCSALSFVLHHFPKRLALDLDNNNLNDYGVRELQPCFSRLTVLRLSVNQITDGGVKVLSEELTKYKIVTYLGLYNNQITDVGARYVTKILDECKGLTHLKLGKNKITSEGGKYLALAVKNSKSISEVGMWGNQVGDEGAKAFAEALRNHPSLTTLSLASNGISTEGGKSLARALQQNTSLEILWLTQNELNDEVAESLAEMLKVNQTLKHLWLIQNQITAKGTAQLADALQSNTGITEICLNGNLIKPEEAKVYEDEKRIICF
# Tumor necrosis factor = Tumor necrosis factor (Homo sapiens, UniProt P01375); assay: TNFa-triggered NF-kB activation inhibitors, SAR follow-up, cell-based, revised (AID 2337); format: functional
# Chain of Tumor necrosis factor (P01375 whole entry): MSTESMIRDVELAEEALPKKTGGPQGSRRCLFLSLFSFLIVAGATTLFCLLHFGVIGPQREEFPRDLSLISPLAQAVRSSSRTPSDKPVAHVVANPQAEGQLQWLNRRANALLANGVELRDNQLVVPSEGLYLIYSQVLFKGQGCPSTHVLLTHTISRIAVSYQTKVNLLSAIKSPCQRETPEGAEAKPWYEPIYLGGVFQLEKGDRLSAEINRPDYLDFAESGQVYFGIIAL
# [5] = molecular target: Potassium voltage-gated channel subfamily KQT member 2 (Rattus norvegicus, UniProt O88943); assay: KCNQ2 channel activators, analog series, SAR follow-up, automated patch clamp, KCNQ2-CHO cells (AID 493113); format: functional
# Chain of Potassium voltage-gated channel subfamily KQT member 2 (O88943 whole entry): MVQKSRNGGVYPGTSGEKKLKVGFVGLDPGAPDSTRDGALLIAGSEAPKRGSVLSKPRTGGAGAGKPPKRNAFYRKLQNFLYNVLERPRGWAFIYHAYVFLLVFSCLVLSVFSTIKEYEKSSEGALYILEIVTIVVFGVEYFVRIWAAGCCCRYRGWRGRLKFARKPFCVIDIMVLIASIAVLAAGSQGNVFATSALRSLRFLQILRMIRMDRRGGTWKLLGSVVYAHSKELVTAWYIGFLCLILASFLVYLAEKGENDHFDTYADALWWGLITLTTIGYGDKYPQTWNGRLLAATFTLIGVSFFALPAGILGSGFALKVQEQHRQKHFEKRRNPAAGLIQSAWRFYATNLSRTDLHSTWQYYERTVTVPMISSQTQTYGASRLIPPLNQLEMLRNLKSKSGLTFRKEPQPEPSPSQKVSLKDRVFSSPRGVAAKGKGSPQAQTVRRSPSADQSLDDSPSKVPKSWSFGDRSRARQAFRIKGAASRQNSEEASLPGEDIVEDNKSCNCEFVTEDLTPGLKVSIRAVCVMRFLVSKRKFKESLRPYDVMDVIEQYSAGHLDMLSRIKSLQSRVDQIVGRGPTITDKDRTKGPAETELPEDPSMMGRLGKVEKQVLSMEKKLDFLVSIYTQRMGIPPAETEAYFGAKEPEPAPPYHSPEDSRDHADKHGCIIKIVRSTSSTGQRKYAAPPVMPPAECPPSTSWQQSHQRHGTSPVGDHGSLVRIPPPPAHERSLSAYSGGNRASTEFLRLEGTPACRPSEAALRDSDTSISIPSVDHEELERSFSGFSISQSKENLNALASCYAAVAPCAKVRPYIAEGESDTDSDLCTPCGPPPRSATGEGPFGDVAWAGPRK
# CAAX prenyl protease 2 = CAAX prenyl protease 2 (Saccharomyces cerevisiae S288c, UniProt Q03530); format: biochemical
# Chain of CAAX prenyl protease 2 (Q03530 whole entry): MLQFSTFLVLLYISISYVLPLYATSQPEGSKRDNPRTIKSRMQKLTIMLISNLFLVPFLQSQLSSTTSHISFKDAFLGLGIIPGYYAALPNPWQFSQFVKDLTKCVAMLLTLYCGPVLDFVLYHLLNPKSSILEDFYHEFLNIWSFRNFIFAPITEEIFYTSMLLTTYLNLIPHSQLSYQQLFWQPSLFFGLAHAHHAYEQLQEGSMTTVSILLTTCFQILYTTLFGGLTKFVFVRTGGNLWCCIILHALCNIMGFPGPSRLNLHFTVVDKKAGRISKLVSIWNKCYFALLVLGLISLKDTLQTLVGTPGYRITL
# CAAX prenyl protease 1 = CAAX prenyl protease 1 (Saccharomyces cerevisiae S288c, UniProt P47154); assay: Ste24 protease inhibitors, dose response, biochemical, S. cerevisiae, plate reader, cherry-pick (AID 488815)
# Chain of CAAX prenyl protease 1 (P47154 whole entry): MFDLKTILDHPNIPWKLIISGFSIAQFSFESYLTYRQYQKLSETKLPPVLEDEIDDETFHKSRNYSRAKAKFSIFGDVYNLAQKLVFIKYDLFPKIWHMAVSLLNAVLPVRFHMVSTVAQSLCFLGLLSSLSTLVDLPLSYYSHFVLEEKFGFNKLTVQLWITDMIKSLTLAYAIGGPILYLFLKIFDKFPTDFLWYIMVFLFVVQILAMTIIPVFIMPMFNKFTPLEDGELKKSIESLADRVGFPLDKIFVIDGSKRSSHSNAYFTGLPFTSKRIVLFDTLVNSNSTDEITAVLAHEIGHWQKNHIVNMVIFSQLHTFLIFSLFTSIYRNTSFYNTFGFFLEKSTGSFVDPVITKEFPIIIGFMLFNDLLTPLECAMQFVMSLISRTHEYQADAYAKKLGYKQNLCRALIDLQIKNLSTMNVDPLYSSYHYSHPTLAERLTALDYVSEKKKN
compound,measurement,setting,value
Cc1cc(Cn2nc(-c3ccccc3)cc2C(=O)NCc2cccc(C(F)(F)F)c2)on1,IC50,[1],31 µM (active)
same,IC50,[2],> 100 µM (inactive)
same,IC50,[3],3.4 µM (active)
Cc1ccc([N+](=O)[O-])cc1NC(=O)c1cc(Cl)c2ccccc2c1O,IC50,HEK293,1.17 µM (active)
same,IC50,[4],0.17 µM (active)
same,IC50,Tumor necrosis factor,0.206 µM (active)
Cc1cc(C)c(NC(=O)CCc2ccccc2)c(C)c1,EC50,[5],1.6 µM (active)
CCOc1cccc(-c2c(C(=O)N/N=C/c3c(F)cccc3Cl)nnn2-c2nonc2N)c1,AC50,CAAX prenyl protease 2,9 µM (active)
same,AC50,CAAX prenyl protease 1,> 100 µM (inactive)
